Laboratory results: patent publication US4363805A, “Aminodesoxy-1.4;3.6-dianhydrohexitol nitrates and pharmaceutical composition” (Firma Willmar Schwabe, priority 1980, dated 1982)

Columns and labels:
narcotised guinea pigs = experiment: Blood pressure experiments on guinea pigs, i.v.; format: in vivo, guinea pig; details: for blood pressure before: before administration
[1] = Acute toxicity, intravenous, mice; format: in vivo; details: mouse, in vivo; intravenous, within 24 hours; read-out: Evaluated LD50-range
female NMRI-albino mice = experiment: Acute toxicity, intravenous, mice; format: in vivo; details: within 24 hours
[2] = test system: isolated guinea pig hearts; experiment: Experiments on Langendorff hearts (coronary flowthrough, inotropism, frequency); details: Cavia porcellus, read-out: flowthrough, percentage change with regard to the initial value
Protocol: After reaching the stationary state in the 30th minute, the hearts were each perfused with 50 ml. tyrode solution with a content of test substance of, in each case, 25 μg./ml. Each test substance was tested on 3-6 hearts.
In each case, there was measured the inotropism, the flowthrough and the frequency, whereby the values given in Table I are average values of the percentage changes in comparison with the initial values.

mongrel cats [3] = experiment: Inotropic and heart-circulatory effectiveness on narcotised cats, intravenous; format: in vivo, cat; details: 6 animals
mongrel cats [4] = experiment: Inotropic and heart-circulatory effectiveness on narcotised cats, intraduodenal; format: in vivo, cat; details: 5 mg/kg intraduodenal
[5] = 0.25 mg/kg i.v., before administration

In the case of `O=[N+]([O-])O[C@H]1CO[C@H]2[C@@H]1OC[C@@H]2N1CCCC1` [14 b], the blood pressure after (narcotised guinea pigs; 0.25 mg/kg i.v.) is reported as 65.75 ± 0.75 mm.Hg, the “blood pressure Δ” value (narcotised guinea pigs; 0.25 mg/kg i.v.) is reported as -5.50 mm.Hg and the blood pressure before (narcotised guinea pigs; 0.25 mg/kg i.v.) is reported as 71.25 ± 0.63 mm.Hg. The blood pressure after (narcotised guinea pigs; 1.00 mg/kg i.v.) was 56.25 ± 2.17 mm.Hg, the “blood pressure Δ” value (narcotised guinea pigs; 1.00 mg/kg i.v.) was -14.00 mm.Hg and the blood pressure after (narcotised guinea pigs; 2.50 mg/kg i.v.) was 49.25 ± 3.94 mm.Hg. For the same compound, the “blood pressure Δ” value (narcotised guinea pigs; 2.50 mg/kg i.v.) was -18.50 mm.Hg, the LD50 at 24 h [1] was at least 200 mg/kg and the Frequency of death (female NMRI-albino mice; 200 mg/kg i.v.) was 1/3. It also gave an activation at 25 µg/mL [2] of 25.4%.
With `O=[N+]([O-])O[C@H]1CO[C@H]2[C@@H]1OC[C@@H]2NCC(O)COc1cccc(C(F)(F)F)c1` (stereo partly drawn) [Example 52, 5-[2-Hydroxy-3-(3-trifluoromethylphenoxy)-propylamino]-5-desoxy-1.4;3.6-dianhydro-L-iditol 2-nitrate] the blood pressure after (narcotised guinea pigs; 0.25 mg/kg i.v.) was 60.50 ± 1.32 mm.Hg, the “blood pressure Δ” value (narcotised guinea pigs; 0.25 mg/kg i.v.) was -5.00 mm.Hg and the blood pressure before (narcotised guinea pigs; 0.25 mg/kg i.v.) was 65.50 ± 1.50 mm.Hg. For the same compound, the blood pressure after (narcotised guinea pigs; 1.00 mg/kg i.v.) was 49.25 ± 4.37 mm.Hg, the “blood pressure Δ” value (narcotised guinea pigs; 1.00 mg/kg i.v.) was -11.75 mm.Hg and the blood pressure after (narcotised guinea pigs; 2.50 mg/kg i.v.) was 39.00 ± 4.38 mm.Hg. The “blood pressure Δ” value (narcotised guinea pigs; 2.50 mg/kg i.v.) was -17.75 mm.Hg, the blood pressure before (mongrel cats [3]; [5]) was 91.7 mm.Hg and the “dp/dt (inotropism) before” value (mongrel cats [3]; [5]) was 6150 mm.Hg/sec. For the same compound, the heart frequency before (mongrel cats [3]; [5]) was 216.7 min⁻¹, the “blood pressure WD” value (mongrel cats [3]; 0.25 mg/kg i.v.) was 5.6 min and the blood pressure after (mongrel cats [3]; 0.25 mg/kg i.v.) was 77.2 mm.Hg. For the same compound, the “blood pressure Δ” value (mongrel cats [3]; 0.25 mg/kg i.v.) was -14.5 mm.Hg, the “dp/dt (inotropism) after” value (mongrel cats [3]; 0.25 mg/kg i.v.) was 5517 mm.Hg/sec and the “dp/dt (inotropism) Δ” value (mongrel cats [3]; 0.25 mg/kg i.v.) was -633 mm.Hg/sec. For the same compound, the “dp/dt WD” value (mongrel cats [3]; 0.25 mg/kg i.v.) was 4.2 min, the heart frequency after (mongrel cats [3]; 0.25 mg/kg i.v.) was 216.7 min⁻¹ and the “heart frequency Δ” value (mongrel cats [3]; 0.25 mg/kg i.v.) was 0 min⁻¹. For the same compound, the “blood pressure WD” value (mongrel cats [3]; 0.50 mg/kg i.v.) was 11.7 min, the blood pressure after (mongrel cats [3]; 0.50 mg/kg i.v.) was 74.8 mm.Hg and the “blood pressure Δ” value (mongrel cats [3]; 0.50 mg/kg i.v.) was -19.9 mm.Hg. For the same compound, the “dp/dt (inotropism) after” value (mongrel cats [3]; 0.50 mg/kg i.v.) was 5133 mm.Hg/sec, the “dp/dt (inotropism) Δ” value (mongrel cats [3]; 0.50 mg/kg i.v.) was -850 mm.Hg/sec and the “dp/dt WD” value (mongrel cats [3]; 0.50 mg/kg i.v.) was 10.5 min. The heart frequency after (mongrel cats [3]; 0.50 mg/kg i.v.) was 217.0 min⁻¹, the “heart frequency Δ” value (mongrel cats [3]; 0.50 mg/kg i.v.) was 0 min⁻¹ and the “blood pressure WD” value (mongrel cats [3]; 1.00 mg/kg i.v.) was 14.7 min. The blood pressure after (mongrel cats [3]; 1.00 mg/kg i.v.) was 69.2 mm.Hg, the “blood pressure Δ” value (mongrel cats [3]; 1.00 mg/kg i.v.) was -26.5 mm.Hg and the “dp/dt (inotropism) after” value (mongrel cats [3]; 1.00 mg/kg i.v.) was 4250 mm.Hg/sec. For the same compound, the “dp/dt (inotropism) Δ” value (mongrel cats [3]; 1.00 mg/kg i.v.) was -1333 mm.Hg/sec, the “dp/dt WD” value (mongrel cats [3]; 1.00 mg/kg i.v.) was 15.3 min and the heart frequency after (mongrel cats [3]; 1.00 mg/kg i.v.) was 217.3 min⁻¹. The “heart frequency Δ” value (mongrel cats [3]; 1.00 mg/kg i.v.) was -1.0 min⁻¹, the “blood pressure WD” value (mongrel cats [3]; 2.50 mg/kg i.v.) was over 10 min and the blood pressure after (mongrel cats [3]; 2.50 mg/kg i.v.) was 60.5 mm.Hg. The “blood pressure Δ” value (mongrel cats [3]; 2.50 mg/kg i.v.) was -34.5 mm.Hg, the “dp/dt (inotropism) after” value (mongrel cats [3]; 2.50 mg/kg i.v.) was 2733 mm.Hg/sec and the “dp/dt (inotropism) Δ” value (mongrel cats [3]; 2.50 mg/kg i.v.) was -2500 mm.Hg/sec. For the same compound, the “dp/dt WD” value (mongrel cats [3]; 2.50 mg/kg i.v.) was over 10 min, the heart frequency after (mongrel cats [3]; 2.50 mg/kg i.v.) was 204.0 min⁻¹ and the “heart frequency Δ” value (mongrel cats [3]; 2.50 mg/kg i.v.) was -14.3 min⁻¹. The blood pressure (mongrel cats [4]; 0 min after admin.) was 113.8 ± 5.8 mm.Hg, the “dp/dt (inotropism)” value (mongrel cats [4]; 0 min after admin.) was 6540 ± 631 mm.Hg/sec and the heart frequency (mongrel cats [4]; 0 min after admin.) was 209.6 ± 15.7 min⁻¹. For the same compound, the blood pressure (mongrel cats [4]; 10 min after admin.) was 100.4 mm.Hg, the “blood pressure Δ” value (mongrel cats [4]; 10 min after admin.) was -13.4 mm.Hg and the “dp/dt (inotropism)” value (mongrel cats [4]; 10 min after admin.) was 6200 ± 374 mm.Hg/sec. The “dp/dt (inotropism) Δ” value (mongrel cats [4]; 10 min after admin.) was -340 mm.Hg/sec, the heart frequency (mongrel cats [4]; 10 min after admin.) was 212.4 ± 13.8 min⁻¹ and the blood pressure (mongrel cats [4]; 30 min after admin.) was 95.6 ± 9.9 mm.Hg. The “blood pressure Δ” value (mongrel cats [4]; 30 min after admin.) was -18.2 mm.Hg, the “dp/dt (inotropism)” value (mongrel cats [4]; 30 min after admin.) was 6120 ± 270 mm.Hg/sec and the “dp/dt (inotropism) Δ” value (mongrel cats [4]; 30 min after admin.) was -440 mm.Hg/sec. The heart frequency (mongrel cats [4]; 30 min after admin.) was 212.8 ± 13.1 min⁻¹, the blood pressure (mongrel cats [4]; 60 min after admin.) was 95.8 ± 8.0 mm.Hg and the “blood pressure Δ” value (mongrel cats [4]; 60 min after admin.) was -18.0 mm.Hg. The “dp/dt (inotropism)” value (mongrel cats [4]; 60 min after admin.) was 5480 ± 314 mm.Hg/sec, the “dp/dt (inotropism) Δ” value (mongrel cats [4]; 60 min after admin.) was -1060 mm.Hg/sec and the heart frequency (mongrel cats [4]; 60 min after admin.) was 216.0 ± 12.3 min⁻¹. For the same compound, the blood pressure (mongrel cats [4]; 120 min after admin.) was 98.4 ± 9.0 mm.Hg, the “blood pressure Δ” value (mongrel cats [4]; 120 min after admin.) was -15.4 mm.Hg and the “dp/dt (inotropism)” value (mongrel cats [4]; 120 min after admin.) was 5460 ± 768 mm.Hg/sec. The “dp/dt (inotropism) Δ” value (mongrel cats [4]; 120 min after admin.) was -1080 mm.Hg/sec, the heart frequency (mongrel cats [4]; 120 min after admin.) was 214.4 ± 11.6 min⁻¹ and the LD50 at 24 h [1] was 100 to 200 mg/kg. For the same compound, the Frequency of death (female NMRI-albino mice; 100 mg/kg i.v.) was 1/3, the Frequency of death (female NMRI-albino mice; 200 mg/kg i.v.) was 6/6 and the activation at 25 µg/mL [2] was 214%.
With `Cc1cccc(OCC(O)CN[C@H]2CO[C@H]3[C@@H]2OC[C@@H]3O[N+](=O)[O-])c1` (stereo partly drawn) [Example 51, 5-[2-Hydroxy-3-(3-tolyloxy)-propylamino]-5-desoxy-1.4;3.6-dianhydro-L-iditol 2-nitrate] the blood pressure after (narcotised guinea pigs; 0.25 mg/kg i.v.) was 63.00 ± 2.35 mm.Hg, the “blood pressure Δ” value (narcotised guinea pigs; 0.25 mg/kg i.v.) was -3.75 mm.Hg and the blood pressure before (narcotised guinea pigs; 0.25 mg/kg i.v.) was 66.75 ± 2.49 mm.Hg. For the same compound, the blood pressure after (narcotised guinea pigs; 1.00 mg/kg i.v.) was 55.75 ± 2.36 mm.Hg, the “blood pressure Δ” value (narcotised guinea pigs; 1.00 mg/kg i.v.) was -10.25 mm.Hg and the blood pressure after (narcotised guinea pigs; 2.50 mg/kg i.v.) was 42.25 ± 1.32 mm.Hg. For the same compound, the “blood pressure Δ” value (narcotised guinea pigs; 2.50 mg/kg i.v.) was -23.50 mm.Hg, the LD50 at 24 h [1] was 50 to 100 mg/kg and the Frequency of death (female NMRI-albino mice; 50 mg/kg i.v.) was 0/3. The Frequency of death (female NMRI-albino mice; 100 mg/kg i.v.) was 3/3, the Frequency of death (female NMRI-albino mice; 200 mg/kg i.v.) was 6/6 and the activation at 25 µg/mL [2] was 92.4%.
With `CN(C)[C@H]1CO[C@H]2[C@@H]1OC[C@@H]2O[N+](=O)[O-]` [12 b] the LD50 at 24 h [1] was over 200 mg/kg, the Frequency of death (female NMRI-albino mice; 200 mg/kg i.v.) was 0/3 and the activation at 25 µg/mL [2] was 16.2%.
For `N[C@@H]1CO[C@H]2[C@@H]1OC[C@@H]2O[N+](=O)[O-]` [2 b], the blood pressure after (narcotised guinea pigs; 0.25 mg/kg i.v.) was 50.25 ± 8.19 mm.Hg, the “blood pressure Δ” value (narcotised guinea pigs; 0.25 mg/kg i.v.) was -5.75 mm.Hg and the blood pressure before (narcotised guinea pigs; 0.25 mg/kg i.v.) was 56.00 ± 7.91 mm.Hg. For the same compound, the blood pressure after (narcotised guinea pigs; 1.00 mg/kg i.v.) was 41.50 ± 4.66 mm.Hg, the “blood pressure Δ” value (narcotised guinea pigs; 1.00 mg/kg i.v.) was -14.25 mm.Hg and the blood pressure after (narcotised guinea pigs; 2.50 mg/kg i.v.) was 31.75 ± 3.09 mm.Hg. For the same compound, the “blood pressure Δ” value (narcotised guinea pigs; 2.50 mg/kg i.v.) was -19.50 mm.Hg, the LD50 at 24 h [1] was over 200 mg/kg and the Frequency of death (female NMRI-albino mice; 200 mg/kg i.v.) was 0/3. It also gave an activation at 25 µg/mL [2] of 25.9%.
